“And” between values parts separate entries of the source, which are not always exact repeats. Identical values can stand only once.
System: ZR-75-1 cells
Assay: NanoString human kinome mRNA quantification
Type: cell-based
Source text: Human mRNAs were hybridised to NanoString human kinome and control code sets, then subjected to quantification using NanoString software. […] To permit data compaction, and simple kinome‐wide comparisons, the fold changes are log2 transformed. […] Cell pellets were resuspended at a concentration of ~6,500 cells/μl in RLT buffer (Qiagen). […] For total copy numbers, triplicate normalised count values were averaged, and to calculate fold induction, means were divided by triplicate mean values from matched DMSO controls. P‐values were calculated using unpaired t‐test (GraphPad Prism software) by employing treated and control count data for each kinase mRNA.

## NC1(c2ccc(-c3nc4ccn5c(=O)[nH]nc5c4cc3-c3ccccc3)cc2)CCC1 [MK-2206]
RYK mRNA, single replicates
  RYK normalised counts: 1148.59 and 1139.68 and 1120.05
SBK1 mRNA, average of 3 replicates
  SBK1 normalised counts, average: 361.503
SBK1 mRNA, single replicates
  SBK1 normalised counts: 371.43 and 336.09 and 376.99
SBK2 mRNA, average of 3 replicates
  SBK2 normalised counts, average: 1.323
SBK2 mRNA, single replicates
  SBK2 normalised counts: 1.48 and 1 and 1.49
SCYL1 mRNA, average of 3 replicates
  SCYL1 normalised counts, average: 556.557
SCYL1 mRNA, single replicates
  SCYL1 normalised counts: 560.49 and 556.75 and 552.43
SCYL2 mRNA, average of 3 replicates
  SCYL2 normalised counts, average: 1373.8
SCYL2 mRNA, single replicates
  SCYL2 normalised counts: 1302.21 and 1441.13 and 1378.05
SCYL3 mRNA, average of 3 replicates
  SCYL3 normalised counts, average: 629.833
SCYL3 mRNA, single replicates
  SCYL3 normalised counts: 586.85 and 664.48 and 638.17
SGK1 mRNA, average of 3 replicates
  SGK1 normalised counts, average: 34.7533
SGK1 mRNA, single replicates
  SGK1 normalised counts: 45.11 and 34.64 and 24.51
SGK2 mRNA, average of 3 replicates
  SGK2 normalised counts, average: 5.517
SGK2 mRNA, single replicates
  SGK2 normalised counts: 6.93 and 3.37 and 6.25
SGK3 mRNA, average of 3 replicates
  SGK3 normalised counts, average: 345.983
SGK3 mRNA, single replicates
  SGK3 normalised counts: 345.97 and 349.13 and 342.85
SGK110 mRNA, average of 3 replicates
  SGK110 normalised counts, average: 1
SGK110 mRNA, single replicates
  SGK110 normalised counts: 1
SGK223 mRNA, average of 3 replicates
  SGK223 normalised counts, average: 114.123
SGK223 mRNA, single replicates
  SGK223 normalised counts: 115.1 and 115.43 and 111.84
SGK494 mRNA, single replicates
  SGK494 normalised counts: 270.07 and 276.17
SIK1 mRNA, average of 3 replicates
  SIK1 normalised counts, average: 97.7933
SIK1 mRNA, single replicates
  SIK1 normalised counts: 92.37 and 96.32 and 104.69
SIK2 mRNA, average of 3 replicates
  SIK2 normalised counts, average: 489.35
SIK2 mRNA, single replicates
  SIK2 normalised counts: 465.05 and 503.76 and 499.24
SIK3 mRNA, average of 3 replicates
  SIK3 normalised counts, average: 191.663
SIK3 mRNA, single replicates
  SIK3 normalised counts: 213.27 and 183.2 and 178.52
SLK mRNA, average of 3 replicates
  SLK normalised counts, average: 781.283
SLK mRNA, single replicates
  SLK normalised counts: 777.73 and 819.98 and 746.14
SNRK mRNA, single replicates
  SNRK normalised counts: 215.99 and 274.58
SPEG mRNA, average of 3 replicates
  SPEG normalised counts, average: 35.4833
SPEG mRNA, single replicates
  SPEG normalised counts: 26.93 and 40.72 and 38.8
SRC mRNA, average of 3 replicates
  SRC normalised counts, average: 1093.13
SRC mRNA, single replicates
  SRC normalised counts: 1115.87 and 1045.86 and 1117.67
SRMS mRNA, average of 3 replicates
  SRMS normalised counts, average: 3.94
SRMS mRNA, single replicates
  SRMS normalised counts: 1.48 and 2.5 and 7.84
SRPK1 mRNA, average of 3 replicates
  SRPK1 normalised counts, average: 1401.66
SRPK1 mRNA, single replicates
  SRPK1 normalised counts: 1439.46 and 1380.32 and 1385.2
SRPK3 mRNA, average of 3 replicates
  SRPK3 normalised counts, average: 7.937
SRPK3 mRNA, single replicates
  SRPK3 normalised counts: 8.75 and 11.19 and 3.87
STK3 mRNA, average of 3 replicates
  STK3 normalised counts, average: 371.33
STK3 mRNA, single replicates
  STK3 normalised counts: 336.89 and 406.46 and 370.64
STK10 mRNA, average of 3 replicates
  STK10 normalised counts, average: 433.017
STK10 mRNA, single replicates
  STK10 normalised counts: 449.6 and 416.89 and 432.56
STK11 mRNA, average of 3 replicates
  STK11 normalised counts, average: 800.127
STK11 mRNA, single replicates
  STK11 normalised counts: 804.09 and 773.94 and 822.35
STK16 mRNA, average of 3 replicates
  STK16 normalised counts, average: 424.973
STK16 mRNA, single replicates
  STK16 normalised counts: 430.51 and 422.97 and 421.44
STK17A mRNA, average of 3 replicates
  STK17A normalised counts, average: 614.85
STK17A mRNA, single replicates
  STK17A normalised counts: 623.21 and 605.4 and 615.94
STK17B mRNA, average of 3 replicates
  STK17B normalised counts, average: 149.18
STK17B mRNA, single replicates
  STK17B normalised counts: 155.09 and 144.1 and 148.35
STK19 mRNA, average of 3 replicates
  STK19 normalised counts, average: 156.807
STK19 mRNA, single replicates
  STK19 normalised counts: 145.09 and 157.13 and 168.2
STK24 mRNA, single replicates
  STK24 normalised counts: 2291.16
STK25 mRNA, average of 3 replicates
  STK25 normalised counts, average: 893.797
STK25 mRNA, single replicates
  STK25 normalised counts: 868.63 and 899.91 and 912.85
STK31 mRNA, average of 3 replicates
  STK31 normalised counts, average: 2.42
STK31 mRNA, single replicates
  STK31 normalised counts: 2.39 and 1 and 3.87
STK32A mRNA, average of 3 replicates
  STK32A normalised counts, average: 1.637
STK32A mRNA, single replicates
  STK32A normalised counts: 1 and 1.63 and 2.28
STK32B mRNA, average of 3 replicates
  STK32B normalised counts, average: 1.427
STK32B mRNA, single replicates
  STK32B normalised counts: 1 (2×) and 2.28
STK32C mRNA, average of 3 replicates
  STK32C normalised counts, average: 205.643
STK32C mRNA, single replicates
  STK32C normalised counts: 188.41 and 219.8
STK33 mRNA, average of 3 replicates
  STK33 normalised counts, average: 1.163
STK33 mRNA, single replicates
  STK33 normalised counts: 1 (2×) and 1.49
STK35 mRNA, average of 3 replicates
  STK35 normalised counts, average: 342.25
STK35 mRNA, single replicates
  STK35 normalised counts: 336.89 and 343.04 and 346.82
STK38L mRNA, average of 3 replicates
  STK38L normalised counts, average: 664.543
STK38L mRNA, single replicates
  STK38L normalised counts: 674.11 and 657.53 and 661.99
STK38 mRNA, average of 3 replicates
  STK38 normalised counts, average: 732.567
STK38 mRNA, single replicates
  STK38 normalised counts: 697.74 and 733.98 and 765.98
STK39 mRNA, average of 3 replicates
  STK39 normalised counts, average: 817.837
STK39 mRNA, single replicates
  STK39 normalised counts: 763.19 and 842.57 and 847.75
VRK3 mRNA
  Normalised counts (single replicate): 720.47 and 725.29 and 752.49
WEE2 mRNA
  Normalised counts (single replicate): 1.48 and 1.63 and 1.49
WNK1 mRNA
  Normalised counts (single replicate): 3425.55 and 3529.59 and 3400.03
WNK2 mRNA
  Normalised counts (single replicate): 345.97 and 335.23 and 337.29
WNK3 mRNA
  Normalised counts (single replicate): 30.56 and 30.3 and 37.21
WNK4 mRNA
  Normalised counts (single replicate): 5.11 and 1 and 4.66
YES1 mRNA
  Normalised counts (single replicate): 2809.27 and 2957.96 and 2943.56
YSK4 mRNA
  Normalised counts (single replicate): 1 (2×) and 1.49
ZAK mRNA
  Normalised counts (single replicate): 35.11 and 50.28 and 49.91
ZAP70 mRNA
  Normalised counts (single replicate): 1 (2×) and 1.63
ZR-75-1, DMSO vehicle 29th
  rank of SGK3 mRNA among AGC kinases: 12
